Results taken from patent US20140294921A1, “COMPOSITION FOR TIPICAL USE FOR TREATING SKIN DISORDERS” (SIGMA-TAU INDUSTRIE FAMACEUTICHE RIUNITE S.P.A., priority 2010, published 2014).

system: dithranol-induced mouse ear inflammation (edema); experiment: Dithranol-induced mouse ear inflammation test; type: in vivo; conditions: Swiss male mice, 10 per group; 20 μL solution painted on left ear at Time 0 and +16 h; dithranol 30 μg in 20 μL acetone at +0.5 h; 6 mm ear disks weighed at +24 h
Experimental: Dithranol is a known inflammatory agent, which induces inflammatory response by releasing free radicals.
The modulatory effects of the compositions of the present invention were tested using the dithranol-induced mouse ear inflammation test described in “Methods in Molecular Biology, 2003, Vol 225; 129-137”, and in “Br. J. Pharmacol. 1991, 104; 990-994”.
Swiss male mice (10 per group) of 6 to 8 weeks old; weighing 28-32 g each; were used. Mice had free access to food and water.
The compounds of the invention were dissolved in water or ethanol (depending on their solubility). 20 μL of the solution containing the compound of the invention, or their combinations, was painted on the left ear (back and front; 10+10 μL) using a Hamilton syringe within 30 seconds (Time 0) The compound tested, and their combinations, are reported in the following
A similar volume of vehicle (water or ethanol) was applied to the other ear (control ear).
After 30 minutes (Time+0.5 h) the irritant, dithranol, 30 μg in 20 μL of acetone was painted on the left ear (back and front, 10+10 μL).
A similar volume of acetone was applied to the other ear.
A group of mice treated only with dithranol (no treatment with the compounds of the invention) was present (control group).
An electric hair dryer for a few seconds to evaporate the solvent was used.
The compounds of the invention were administered again 16 hours from the first treatment (Time+16 h).
After 24 hours from the first treatment (Time+24 h) the animals were killed with an overdose of diethyl ether and the ears were cut off.
A disk from the middle part of each ear was cut off, using a sharp punch 6 mm in diameter.
The disks samples were weighted on a suitable balance, and the extent of the edema (as percentage of inhibition) was calculated according to the formula reported on page 991, right column, of “Br. J. Pharmacol. 1991, 104; 990-994” mentioned above.

Row | Compound | % Inhibit. (extent of the edema as percentage of inhibition) [%]
1 | C[N+](C)(C)C[C@H](O)CC(=O)[O-] [L-carnitine] | 9
2 | Vitamin B12 | 8
3 | Vitamin E | 8
4 | CC(C)(CO)[C@@H](O)C(=O)NCCCO [Panthenol] | 7
5 | O=C(O)CCCC[C@@H]1SC[C@@H]2NC(=O)N[C@@H]21 [Biotin] | 6
6 | CC(C)=CCC[C@](C)(O)C1CC=C(C)CC1 (stereo partly drawn) [Bisabolol] | 6
